Reference: patent US20220289657A1, “COMPOSITION FOR PREVENTING OR TREATING BACTERIAL INFECTIOUS DISEASE COMPRISING 4-GINGEROL DERIVATIVE COMPOUND AS ACTIVE INGREDIENT” (KOREA UNIVERSITY RESEARCH AND BUSINESS FOUNDATION, SEJONG …, priority 2019, published 2022)
Read-outs that look alike come from different tables or passages of the source. Marks after values point to notes of the source that are not given here.

What was measured:
RhlR = biological target: T1, RhlR (Pseudomonas aeruginosa, UniProt P54292); test: cell-based; settings: for Relative RhlR activity Antagonism / Relative RhlR activity Agonism: Table 2; for Relative RhlR activity Agonism / activity at 100 µM: matches the 100 column of Table 3; for IC50: dose-response, FIG. 6A, different concentrations (0 to 100 μM); for Relative RhIR Activity (%) Agonism 100 / Relative RhIR Activity (%) Agonism 1000: Table 3; for Relative RhIR Activity (%) Agonism 1000: 1000 (μM); for remaining activity at 10 µM: read-out: Relative RhIR Activity (%) Antagonism 10, Table 3; for activity at 100 µM: read-out: Relative RhlR activity Agonism, Table 2; for Relative RhIR activity (%) Agonism / Relative RhIR activity (%) Antagonism: Table 4, concentration not given
T1 construct: expressed in transfected cells; host or cells: E. coli sdiA variant co-transformed with pJN105R and pSC11 (RhlA::lacZ)
T1 sequence (P54292 whole entry): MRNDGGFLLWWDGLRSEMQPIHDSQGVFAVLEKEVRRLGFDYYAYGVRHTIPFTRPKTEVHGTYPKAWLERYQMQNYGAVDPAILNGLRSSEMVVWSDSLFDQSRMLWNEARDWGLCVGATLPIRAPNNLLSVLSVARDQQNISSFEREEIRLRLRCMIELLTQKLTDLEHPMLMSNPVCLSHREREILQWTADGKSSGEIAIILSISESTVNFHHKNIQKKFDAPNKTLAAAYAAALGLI
Protocol: Escherichia coli (E. coli) DH5a includes LuxR homolog SdiA detecting endogenous AHL synthesized by other microbial species, particularly, BHL.
(§1) For RhlR reporter strain analysis, the present invention used pJN105R (RhlR expression plasmid), anspSC11 (RhlA::lacZ fusion plasmid) and an sdiA variant co-transformed with the two plasmids. 1% of an overnight-cultured reporter strain (OD 595 nm=1.0) supplemented with 10 μg/mL gentamicin and 50 μg/mL ampicillin was cultured in a Luria-Bertani (LB) medium (Difco, Detroit, Mich., USA) with a positive control or a compound (0-1000 μM) and BHL (0-10 μM) (Sigma-Aldrich) at 37° C. for 2 hours. 0.4% arabinose (Sigma-Aldrich) was reacted with the resulting product at 37° C. for 1.5 hours. β-galactosidase activity was evaluated using a Tropix plus kit (Applied Biosystems, CA, USA), and OD 595 nm and luminescence were measured using a VICTOR x5 multimode plate reader (PerkinElmer, Waltham, Mass., USA). Relative RhlR activity was quantified by measuring luminescence at OD 595 nm. In addition, for LasR reporter strain analysis, the present invention used pJN105L (LasR expression plasmid) and pSC11 (lasI::lacZ fusion plasmid), E. coli DH5a co-transformed with the two plasmids, and OdDHL (Sigma-Aldrich).

LasR = biological target: T2, LasR (Pseudomonas aeruginosa, UniProt P25084); test: QS reporter strain assay, LasR (lasI::lacZ); type: cell-based; settings: 0.1 and 10 μM; FIG. 6C
T2 construct: expressed in transfected cells; host or cells: E. coli DH5a co-transformed with pJN105L and pSC11 (lasI::lacZ)
T2 sequence (P25084 whole entry): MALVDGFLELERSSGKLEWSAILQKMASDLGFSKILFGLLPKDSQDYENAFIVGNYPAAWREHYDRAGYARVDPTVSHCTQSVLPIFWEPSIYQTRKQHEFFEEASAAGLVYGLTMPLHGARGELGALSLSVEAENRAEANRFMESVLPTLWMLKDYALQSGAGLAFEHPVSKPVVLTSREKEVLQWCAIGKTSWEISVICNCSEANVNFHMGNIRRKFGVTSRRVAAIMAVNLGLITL
Protocol: as §1

Pseudomonas aeruginosa [1] = test: Static biofilm formation assay (crystal violet); type: cell-based; settings: for activity at 10 µM / activity at 100 µM: Pseudomonas aeruginosa, 24 h, Table 3; for activity at 10 µM / activity at 100 µM / biofilm formation compared with a control (in words): static; for activity at 10 µM: read-out: Relative biological activity (%) Biofilm formation 10; for activity at 100 µM: read-out: Relative biological activity (%) Biofilm formation 100; for biofilm formation compared with a control (in words): 100 μM; for Relative biological activity (%) Biofilm formation: Table 4, concentration not given
Protocol: (§2) Pseudomonas aeruginosa (P. aeruginosa) (OD 595 nm=1.0) was cultured overnight, and diluted in an AB medium (1:20; 300 mM NaCl, 50 mM MgSO4, 0.2% vitamin-free casamino acids, 10 mM potassium phosphate, 1 mM L-arginine, and 1% glucose, pH 7.5) together with a positive control or compound (0100 μM) in a borosilicate bottle. The resulting mixture was incubated without shaking at 37° C. for 24 hours, and to measure growth inhibition activity. OD 595 nm of the suspended culture was measured using a multimode plate reader. Biofilm cells attached to the bottle were washed twice with phosphate-buffered saline (PBS; 137 mM NaCl, 2.7 mM KCl, 10 mM Na2HPO4, and 2 mM KH2PO4, pH 7.2). Afterward, the remaining biofilm cells were stained with 0.1% crystal violet for 10 minutes, and to remove the unbound crystal violet, washed with deionized water. The crystal violet […] to the biofilm cells was eluted with 100% ethanol, and the OD of the eluted ethanol sample was measured at 545 nm using a multimode plate reader.

Pseudomonas aeruginosa [2] = test: Bacterial growth under static condition (OD 595 nm of suspended culture); type: cell-based; settings: for activity at 10 µM / activity at 100 µM: Pseudomonas aeruginosa, 24 h, Table 3; for activity at 10 µM: read-out: Relative biological activity (%) Bacterial growth 10; for activity at 100 µM: read-out: Relative biological activity (%) Bacterial growth 100; for Relative biological activity (%) Bacterial growth: Table 4, concentration not given; for effect on cell growth (in words): 100 PM [sic] (100 μM)
Protocol: as §2

P. aeruginosa = test: Rhamnolipid production assay; type: cell-based, Pseudomonas aeruginosa; settings: for activity at 10 µM / activity at 100 µM: Pseudomonas aeruginosa, 24 h; for activity at 10 µM: read-out: Relative biological activity (%) Rhamnolipid production 10; for activity at 100 µM: read-out: Relative biological activity (%) Rhamnolipid production 100; for Relative biological activity (%) Rhamnolipid production: Table 4, concentration not given
Protocol: P. aeruginosa (OD 595 nm=1.0) cultured overnight was inoculated in an AB medium (1:100) with a positive control or compound (0100 μM), and incubated using a shaking culture for 24 hours at 37° C. The cell culture was centrifuged for 5 minutes at 4° C. and 12,000 g. Rhamnolipids were extracted twice by mixing 200 μL of a supernatant and 400 μL of 100% diethyl ether (JUNSEI, Tokyo, Japan). The supernatant was transferred to a new tube and evaporated. A dried sample was eluted with 20 μL of deionized water, and reacted with 180 μL of an Orcinal solution (0.19% Orcinal (Sigma-Aldrich) in 53% H2SO4). The reaction mixture was heated for 30 minutes at 80° C., and cooled for 15 minutes at room temperature. The amount of rhamnolipids was measured at OD 421 nm, and normalized in the cell culture solution at OD 595 nm using a multimode plate reader.

Pseudomonas aeruginosa [3] = test: Dynamic biofilm formation assay (drip-flow reactor, CLSM); type: cell-based; settings: 48 hours, 10 μM, smaller volume and thickness than control
Protocol: Glass slides were placed in a drip-flow reactor, and an AB medium containing 5% P. aeruginosa (OD 595 nm=1.0) was added along with a positive control or compound (0 to 10 μM) and the reactor was continuously operated using peristaltic pumps (Masterflex C/L tubing pumps, Cole-Parmer, Ill., USA) at 0.3 ml/min. After the above-described process was carried out at 37° C. for 48 hours, unattached biofilm cells were removed with PBS. The remaining biofilm cells were stained with DAPI (Sigma-Aldrich) for 10 minutes, and observed by confocal laser scanning microscopy (CLSM; Carl Zeiss LSM700, Jena, Germany). The CLSM image of the biofilm cells was obtained with a 20× objective lens (W NAchroplanX20/0.5W (DIC) M27) under blue fluorescence light (excitation wavelength: 350 nm, emission wavelength: 470 nm) using a Z-stack mode of the Zen 2011 program. The volume and thickness of the biofilm were measured using Comstat2 of the ImageJ program based on a CLSM image.

[4] = footnotes not given, 100 μM per Table 3, lower = stronger antagonism
[5] = read-out: Relative RhIR Activity (%) Antagonism 100, Table 3, 100 (μM)
[6] = read-out: Relative RhlR activity Antagonism, Table 2, footnotes not given, 100 μM per Table 3, lower = stronger antagonism

Row | Compound | Relative RhlR activity Antagonism (RhlR; [4]) | Relative RhIR Activity (%) Agonism 100 (RhlR; 100 (μM)) | Relative RhIR Activity (%) Agonism 1000 (RhlR) | remaining activity at 10 µM (RhlR) | remaining activity at 100 µM (RhlR; [5]) | activity at 100 µM (RhlR; footnotes not given) | remaining activity at 100 µM (RhlR; [6]) | activity at 10 µM (Pseudomonas aeruginosa [1]) | activity at 100 µM (Pseudomonas aeruginosa [1]) | biofilm formation compared with a control (in words) (Pseudomonas aeruginosa [1]) | activity at 10 µM (Pseudomonas aeruginosa [2]) | activity at 100 µM (Pseudomonas aeruginosa [2]) | activity at 10 µM (P. aeruginosa; Table 3, 10 (μM)) | activity at 100 µM (P. aeruginosa; Table 3, 100 (μM)) | Relative RhIR activity (%) Agonism (RhlR) | Relative RhIR activity (%) Antagonism (RhlR) | Relative biological activity (%) Biofilm formation (Pseudomonas aeruginosa [1]) | Relative biological activity (%) Bacterial growth (Pseudomonas aeruginosa [2]) | Relative biological activity (%) Rhamnolipid production (P. aeruginosa) | also measured
1 | CCCC(O)CC(=O)CCc1ccc(O)c(OC)c1 (stereo not drawn) [Compound 12a, 5-Hydroxy-1-(4-hydroxy-3-methoxyphenyl)octan-3-one] | 69** % |  |  |  |  |  |  |  |  |  |  |  |  |  |  |  |  |  |  | Relative RhlR activity Agonism (RhlR; footnotes not given): 4** %; IC50 (RhlR): 218 µM; LasR antagonistic activity (LasR): no LasR antagonistic activity
2 | CCCCCC(=O)/C=C/c1ccc(F)c(F)c1 [Compound 13a, (E)-1-(3,4-Difluorophenyl)oct-1-en-3-one] |  | 4** % | 3** % | 53% | 51% | 4% | 51% | 80% | 61% | significantly inhibited | 103% | 103% | 64% | 62% |  |  |  |  |  | 
3 | CCCC(O)CC(=O)/C=C/c1ccc(O)cc1 (stereo not drawn) [Compound 11d, (E)-5-Hydroxy-1-(4-hydroxyphenyl)oct-1-en-3-one] | 51** % |  |  |  |  | 1% | 51% |  |  |  |  |  |  |  | 1** % | 51** % | 74* % | 105% | 83% | 
4 | CCCCC[C@H](O)C#Cc1ccc(O)c(OC)c1 [Compound 23c, (S)-4-(3-Hydroxyoct-1-yn-1-yl)-2-methoxyphenol] | 34** % |  |  |  |  | 3% | 34% |  |  |  |  |  |  |  | 3** % | 34** % | 67* % | 104% | 86% | 
5 | CCCCCC(=O)C#Cc1ccc(O)c(OC)c1 [Compound 21, 1-(4-Hydroxy-3-methoxyphenyl)oct-1-yn-3-one] | 29** % |  |  |  |  | 3% | 29% |  |  |  |  |  |  |  | 3** % | 29** % | 72* % | 102% | 81* % | 
6 | CCCCCC(=O)C#Cc1ccc(F)c(F)c1 [Compound 32, 1-(3,4-Difluorophenyl)oct-1-yn-3-one] |  | 3** % | 5** % | 39% | 17% | 3% | 17% | 71% | 56% | significantly inhibited | 100% | 88% | 60% | 58% |  |  |  |  |  | effect on cell growth (in words) (Pseudomonas aeruginosa [2]): slightly inhibited
7 | CCCC(O)CC(=O)/C=C/c1ccc(F)c(F)c1 (stereo not drawn) [Compound 11o, (E)-1-(3,4-Difluorophenyl)-5-hydroxyoct-1-en-3-one] | 20** % | 2** % | 5** % | 60% | 20% | 2% | 20% | 72% | 53% | significantly inhibited | 101% | 105% | 63% | 50% |  |  |  |  |  | Relative RhlR activity Agonism (RhlR; footnotes not given): 2** %
8 | CCC[C@H](O)C#Cc1ccc(F)c(F)c1 [Compound 33c, (S)-1-(3,4-Difluorophenyl)hex-1-yn-3-ol] |  | 3** % | 5** % | 59% | 38% | 3% | 38% | 79% | 64% |  | 98% | 99% | 59% | 52% |  |  |  |  |  | 
9 | CCCCC(=O)C#Cc1ccc(F)c(F)c1 [Compound 31, 1-(3,4-Difluorophenyl)hept-1-yn-3-one] |  | 4** % | 6** % | 29% | 16% | 4% | 16% | 75% | 55% | significantly inhibited | 100% | 89% | 59% | 49% |  |  |  |  |  | effect on cell growth (in words) (Pseudomonas aeruginosa [2]): slightly inhibited
10 | CCCC(=O)NC1CCCC1 [Compound 1d, N-cyclopentylbutyramide, reference compound] | 54** % | 4** % | 37% | 74% | 54% | 4% | 54% | 84% | 69% |  | 95% | 98% |  |  | 4** % |  | 81* % |  | 68* % | IC50 (RhlR): 86 µM; biofilm appearance under flow condition vs control (Pseudomonas aeruginosa [3]): thinner and more dispersed biofilm; activity at 10 µM (P. aeruginosa): 58%; activity at 100 µM (P. aeruginosa): 45%
